From US12479830B2, “Homopiperazinyl and homopiperidinyl quinazolin-4(3H)-one derivatives having multimodal activity against pain” (ESTEVE PHARMACEUTICALS, S.A., priority 2019, dated 2025)

Assays:
[1] = biological target: Human α2δ-1 subunit of Cav2.2 calcium channel (Homo sapiens, UniProt P54289); test: Human α2δ-1 subunit of Cav2.2 calcium channel assay ([3H]-gabapentin binding); conditions: binding to the α2δ-1 subunit of voltage-gated calcium channels, expressed as Ki class; + also covers inhibition between 1% and 50%
Chain of Human α2δ-1 subunit of Cav2.2 calcium channel (P54289 25-1103): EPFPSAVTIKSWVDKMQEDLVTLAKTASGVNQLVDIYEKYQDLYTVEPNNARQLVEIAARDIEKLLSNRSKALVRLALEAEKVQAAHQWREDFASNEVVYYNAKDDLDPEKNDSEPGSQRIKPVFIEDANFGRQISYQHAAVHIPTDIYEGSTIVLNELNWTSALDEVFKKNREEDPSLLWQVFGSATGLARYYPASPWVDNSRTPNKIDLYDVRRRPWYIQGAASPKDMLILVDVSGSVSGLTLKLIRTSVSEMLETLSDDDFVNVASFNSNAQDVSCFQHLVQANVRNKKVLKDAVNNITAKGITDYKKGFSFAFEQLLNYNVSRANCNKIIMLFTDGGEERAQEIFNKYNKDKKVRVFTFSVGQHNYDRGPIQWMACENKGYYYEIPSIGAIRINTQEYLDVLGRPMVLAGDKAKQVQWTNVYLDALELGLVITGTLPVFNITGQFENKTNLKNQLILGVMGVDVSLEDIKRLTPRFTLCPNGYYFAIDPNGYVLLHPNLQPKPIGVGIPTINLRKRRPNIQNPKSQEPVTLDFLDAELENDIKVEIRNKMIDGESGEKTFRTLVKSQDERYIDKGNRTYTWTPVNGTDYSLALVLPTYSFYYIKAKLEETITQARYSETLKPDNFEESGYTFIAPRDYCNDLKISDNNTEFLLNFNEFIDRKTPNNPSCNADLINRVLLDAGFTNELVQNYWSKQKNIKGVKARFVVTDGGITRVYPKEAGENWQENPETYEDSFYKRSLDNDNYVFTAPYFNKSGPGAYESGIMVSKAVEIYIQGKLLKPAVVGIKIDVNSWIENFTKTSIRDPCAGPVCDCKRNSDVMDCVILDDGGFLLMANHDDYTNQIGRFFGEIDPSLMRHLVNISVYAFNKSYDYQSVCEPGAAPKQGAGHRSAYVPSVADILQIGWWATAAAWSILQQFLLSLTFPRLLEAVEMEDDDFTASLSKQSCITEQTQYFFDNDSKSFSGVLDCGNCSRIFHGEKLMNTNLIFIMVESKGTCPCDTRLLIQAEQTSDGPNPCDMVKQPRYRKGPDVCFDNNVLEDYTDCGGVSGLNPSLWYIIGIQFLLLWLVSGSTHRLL
Procedure, shortened: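 Human α2δ-1 enriched membranes (2.5 μg) incubated 60 min at 27° C. with 15 nM [3H]-gabapentin in 10 mM Hepes-KOH pH 7.4; non-specific binding with 10 μM pregabalin. Filtration binding; % inhibition at 1 or 10 μM, or Ki from five concentrations.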

[2] = biological target: T1, Human σ1 receptor (Homo sapiens, UniProt Q99720); test: Human σ1 receptor radioligand assay ([3H](+)-pentazocine binding); conditions: binding to the σ1 receptor, expressed as Ki class; + also covers inhibition between 1% and 50%
T1 construct: expressed in transfected cells; host or cells: HEK-293
T1 sequence (Q99720 whole entry): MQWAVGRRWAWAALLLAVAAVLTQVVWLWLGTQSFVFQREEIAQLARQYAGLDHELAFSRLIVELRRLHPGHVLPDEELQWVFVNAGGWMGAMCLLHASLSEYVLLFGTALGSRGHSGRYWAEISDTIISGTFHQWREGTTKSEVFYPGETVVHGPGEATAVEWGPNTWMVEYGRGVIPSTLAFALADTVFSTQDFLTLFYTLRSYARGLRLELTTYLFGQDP
Procedure, shortened: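 Membranes (7 μg) were incubated with 5 nM [3H](+)-pentazocine in 50 mM Tris-HCl pH 8 for 120 min at 37° C. Non-specific binding was defined with 10 μM haloperidol. Values are % inhibition at 1 or 10 μM or Ki from five concentrations, read by filtration and scintillation counting.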

Compound CCC[C@H](c1nc2ccc(Br)cc2c(=O)n1CC)N1CCCN(CC)CC1 [Example 153, (R)-6-Bromo-3-ethyl-2-(1-(4-ethyl-1,4-diazepan-1-yl)butyl)quinazolin-4(3H)-one] has a Ki [1] of under 0.5 µM and a Ki [2] of under 0.5 µM.
CCC[C@@H](c1nc2ccc(Br)cc2c(=O)n1CC)N1CCCN(CC)CC1 [Example 154, (S)-6-bromo-3-ethyl-2-(1-(4-ethyl-1,4-diazepan-1-yl)butyl)quinazolin-4(3H)-one] gave a Ki [1] of over 5 µM and a Ki [2] of under 0.5 µM.
Work on CCC[C@H](c1nc2cc(F)c(Br)cc2c(=O)n1CC)N1CCCN(C)CC1 [Example 155, (R)-6-Bromo-3-ethyl-7-fluoro-2-(1-(4-methyl-1,4-diazepan-1-yl)butyl)quinazolin-4(3H)-one] yielded a Ki [1] of over 5 µM and a Ki [2] of over 1 µM.
CCC[C@@H](c1nc2cc(F)c(Br)cc2c(=O)n1CC)N1CCCN(C)CC1 [Example 156, (S)-6-bromo-3-ethyl-7-fluoro-2-(1-(4-methyl-1,4-diazepan-1-yl)butyl)quinazolin-4(3H)-one] was tested, and the Ki [1] was over 5 µM and the Ki [2] was 0.5 to 1 µM.
Compound CCC[C@H](c1nc2cc(F)c(Br)cc2c(=O)n1CC)N1CCCNCC1 [Example 157, (R)-2-(1-(1,4-Diazepan-1-yl)butyl)-6-bromo-3-ethyl-7-fluoroquinazolin-4(3H)-one] has a Ki [1] of under 0.5 µM and a Ki [2] of over 1 µM.
For CCC[C@@H](c1nc2cc(F)c(Br)cc2c(=O)n1CC)N1CCCNCC1 [Example 158, (S)-2-(1-(1,4-diazepan-1-yl)butyl)-6-bromo-3-ethyl-7-fluoroquinazolin-4(3H)-one], the Ki [1] was over 5 µM and the Ki [2] was over 1 µM.
CCC[C@H](c1nc2ccc(Cl)cc2c(=O)n1CCC)N1CCCN(C)CC1 [Example 159, (R)-6-Chloro-2-(1-(4-methyl-1,4-diazepan-1-yl)butyl)-3-propylquinazolin-4(3H)-one] was tested, and the Ki [1] was under 0.5 µM and the Ki [2] was under 0.5 µM.
With CCC[C@@H](c1nc2ccc(Cl)cc2c(=O)n1CCC)N1CCCN(C)CC1 [Example 160, (S)-6-chloro-2-(1-(4-methyl-1,4-diazepan-1-yl)butyl)-3-propylquinazolin-4(3H)-one] the Ki [1] was over 5 µM and the Ki [2] was over 1 µM.
CCC[C@H](c1nc2c(F)cc(Br)cc2c(=O)n1CC)N1CCCN(C)CC1 [Example 161, (R)-6-Bromo-3-ethyl-8-fluoro-2-(1-(4-methyl-1,4-diazepan-1-yl)butyl)quinazolin-4(3H)-one] was tested, and the Ki [1] was under 0.5 µM and the Ki [2] was 0.5 to 1 µM.
CCC[C@@H](c1nc2c(F)cc(Br)cc2c(=O)n1CC)N1CCCN(C)CC1 [Example 162, (S)-6-bromo-3-ethyl-8-fluoro-2-(1-(4-methyl-1,4-diazepan-1-yl)butyl)quinazolin-4(3H)-one] was tested, and the Ki [1] was over 5 µM and the Ki [2] was 0.5 to 1 µM.
CCCC(c1nc2ccncc2c(=O)n1CC)N1CCCN(C)CC1 (stereo not drawn) [Example 163, 3-Ethyl-2-(1-(4-methyl-1,4-diazepan-1-yl)butyl)pyrido[4,3-d]pyrimidin-4(3H)-one] was tested, and the Ki [1] was under 0.5 µM and the Ki [2] was over 1 µM.
Compound CCC[C@H](c1nc2ccncc2c(=O)n1CC)N1CCNC[C@H](C)C1 [Example 164, 3-ethyl-2-((R)-1-((S)-6-methyl-1,4-diazepan-1-yl)butyl)pyrido[4,3-d]pyrimidin-4(3H)-one] has a Ki [1] of under 0.5 µM and a Ki [2] of over 1 µM.
In the case of CCC[C@H](c1nc2ccncc2c(=O)n1CC)N1CCNC[C@@H](C)C1 [Example 165, 3-ethyl-2-((R)-1-((R)-6-methyl-1,4-diazepan-1-yl)butyl)pyrido[4,3-d]pyrimidin-4(3H)-one], the Ki [1] is reported as under 0.5 µM and the Ki [2] is reported as over 1 µM.
With CCC[C@@H](c1nc2ccncc2c(=O)n1CC)N1CCNC[C@H](C)C1 [Example 166, 3-ethyl-2-((S)-1-((S)-6-methyl-1,4-diazepan-1-yl)butyl)pyrido[4,3-d]pyrimidin-4(3H)-one] the Ki [1] was over 5 µM and the Ki [2] was over 1 µM.
Work on CCC[C@@H](c1nc2ccncc2c(=O)n1CC)N1CCNC[C@@H](C)C1 [Example 167, 3-ethyl-2-((S)-1-((R)-6-methyl-1,4-diazepan-1-yl)butyl)pyrido[4,3-d]pyrimidin-4(3H)-one] yielded a Ki [1] of 0.5 to 5 µM and a Ki [2] of over 1 µM.
CCC[C@H](c1nc2ccncc2c(=O)n1CC)N1CCN(C)C[C@@H](C)C1 [Example 168, 2-((R)-1-((R)-4,6-dimethyl-1,4-diazepan-1-yl)butyl)-3-ethylpyrido[4,3-d]pyrimidin-4(3H)-one] gave a Ki [1] of under 0.5 µM and a Ki [2] of over 1 µM.
For CCC[C@H](c1nc2ccncc2c(=O)n1CC)N1CCN(C)C[C@H](C)C1 [Example 169, 2-((R)-1-((S)-4,6-dimethyl-1,4-diazepan-1-yl)butyl)-3-ethylpyrido[4,3-d]pyrimidin-4(3H)-one], the Ki [1] was under 0.5 µM and the Ki [2] was over 1 µM.
CCC[C@@H](c1nc2ccncc2c(=O)n1CC)N1CCN(C)C[C@H](C)C1 [Example 170, 2-((S)-1-((S)-4,6-dimethyl-1,4-diazepan-1-yl)butyl)-3-ethylpyrido[4,3-d]pyrimidin-4(3H)-one] was tested, and the Ki [1] was 0.5 to 5 µM and the Ki [2] was over 1 µM.
CCC[C@@H](c1nc2ccncc2c(=O)n1CC)N1CCN(C)C[C@@H](C)C1 [Example 171, 2-((S)-1-((R)-4,6-dimethyl-1,4-diazepan-1-yl)butyl)-3-ethylpyrido[4,3-d]pyrimidin-4(3H)-one] showed a Ki [1] of over 5 µM and a Ki [2] of over 1 µM.
For CCCC(c1nc2ccncc2c(=O)n1CC)N1CCCNCC1 (stereo not drawn) [Example 172, 2-(1-(1,4-diazepan-1-yl)butyl)-3-ethylpyrido[4,3-d]pyrimidin-4(3H)-one], the Ki [1] was under 0.5 µM and the Ki [2] was over 1 µM.
For CCC[C@H](c1nc2ccncc2c(=O)n1CC)N1CCCN(C)CC1 [Example 173, (R)-3-Ethyl-2-(1-(4-methyl-1,4-diazepan-1-yl)butyl)pyrido[4,3-d]pyrimidin-4(3H)-one], the Ki [1] was under 0.5 µM and the Ki [2] was over 1 µM.
With CCC[C@@H](c1nc2ccncc2c(=O)n1CC)N1CCCN(C)CC1 [Example 174, (S)-3-ethyl-2-(1-(4-methyl-1,4-diazepan-1-yl)butyl)pyrido[4,3-d]pyrimidin-4(3H)-one] the Ki [1] was over 5 µM and the Ki [2] was over 1 µM.
Work on CCCC(c1nc2ncc(Br)cc2c(=O)n1CC)N1CCCN(C)CC1 (stereo not drawn) [Example 175, 6-Bromo-3-ethyl-2-(1-(4-methyl-1,4-diazepan-1-yl)butyl)pyrido[2,3-d]pyrimidin-4(3H)-one] yielded a Ki [1] of under 0.5 µM and a Ki [2] of over 1 µM.
Work on CCC[C@H](c1nc2ncc(Br)cc2c(=O)n1CC)N1CCCN(CC)CC1 [Example 176, 6-bromo-3-ethyl-2-(1-(4-ethyl-1,4-diazepan-1-yl)butyl)pyrido[2,3-d]pyrimidin-4(3H)-one] yielded a Ki [1] of over 5 µM and a Ki [2] of over 1 µM.
Compound CCCC(c1nc2ncc(Br)cc2c(=O)n1CC)N1CCCNCC1 (stereo not drawn) [Example 177, 2-(1-(1,4-diazepan-1-yl)butyl)-6-bromo-3-ethylpyrido[2,3-d]pyrimidin-4(3H)-one] has a Ki [1] of under 0.5 µM and a Ki [2] of over 1 µM.
With CCCC(c1nc2ncccc2c(=O)n1CC)N1CCCN(CC)CC1 (stereo not drawn) [Example 178, 3-ethyl-2-(1-(4-ethyl-1,4-diazepan-1-yl)butyl)pyrido[2,3-d]pyrimidin-4(3H)-one] the Ki [1] was under 0.5 µM and the Ki [2] was over 1 µM.
Compound CCCC(c1nc2ncccc2c(=O)n1CC)N1CCCNCC1 (stereo not drawn) [Example 179, 2-(1-(1,4-diazepan-1-yl)butyl)-3-ethylpyrido[2,3-d]pyrimidin-4(3H)-one] has a Ki [1] of 0.5 to 5 µM and a Ki [2] of over 1 µM.
CCCC(c1nc2ncccc2c(=O)n1CC)N1CCCN(C)CC1 (stereo not drawn) [Example 180, 3-ethyl-2-(1-(4-methyl-1,4-diazepan-1-yl)butyl)pyrido[2,3-d]pyrimidin-4(3H)-one] was tested, and the Ki [1] was under 0.5 µM and the Ki [2] was over 1 µM.
With CCCC(c1nc2ncc(Br)cc2c(=O)n1CCC)N1CCCN(C)CC1 (stereo not drawn) [Example 181, 6-bromo-2-(1-(4-methyl-1,4-diazepan-1-yl)butyl)-3-propylpyrido[2,3-d]pyrimidin-4(3H)-one] the Ki [1] was under 0.5 µM and the Ki [2] was over 1 µM.
Work on CCCC(c1nc2ncc(F)cc2c(=O)n1CC)N1CCCN(C)CC1 (stereo not drawn) [Example 182] yielded a Ki [1] of under 0.5 µM and a Ki [2] of over 1 µM.
For CCCC(c1nc2ncc(Br)cc2c(=O)n1CC1CC1)N1CCCN(C)CC1 (stereo not drawn) [Example 183, 6-bromo-3-(cyclopropylmethyl)-2-(1-(4-methyl-1,4-diazepan-1-yl)butyl)pyrido[2,3-d]pyrimidin-4(3H)-one], the Ki [1] was under 0.5 µM and the Ki [2] was over 1 µM.
In the case of CCCC(c1nc2ncc(F)cc2c(=O)n1CC1CC1)N1CCCN(C)CC1 (stereo not drawn) [Example 184, 3-(cyclopropylmethyl)-6-fluoro-2-(1-(4-methyl-1,4-diazepan-1-yl)butyl)pyrido[2,3-d]pyrimidin-4(3H)-one], the Ki [1] is reported as under 0.5 µM and the Ki [2] is reported as over 1 µM.
Compound CCCC(c1nc2ncc(F)cc2c(=O)n1CC1CC1)N1CCCN(CC)CC1 (stereo not drawn) [Example 185, 3-(cyclopropylmethyl)-2-(1-(4-ethyl-1,4-diazepan-1-yl)butyl)-6-fluoropyrido[2,3-d]pyrimidin-4(3H)-one] has a Ki [1] of under 0.5 µM and a Ki [2] of over 1 µM.
Compound CCC[C@H](c1nc2ncc(Br)cc2c(=O)n1CC)N1CCN(C)C[C@@H](C)C1 [Example 186, 6-bromo-2-((R)-1-((R)-4,6-dimethyl-1,4-diazepan-1-yl)butyl)-3-ethylpyrido[2,3-d]pyrimidin-4(3H)-one] has a Ki [1] of under 0.5 µM and a Ki [2] of over 1 µM.
CCC[C@H](c1nc2ncc(Br)cc2c(=O)n1CC)N1CCN(C)C[C@H](C)C1 [Example 187, 6-bromo-2-((R)-1-((S)-4,6-dimethyl-1,4-diazepan-1-yl)butyl)-3-ethylpyrido[2,3-d]pyrimidin-4(3H)-one] gave a Ki [1] of under 0.5 µM and a Ki [2] of over 1 µM.
Compound CCC[C@@H](c1nc2ncc(Br)cc2c(=O)n1CC)N1CCN(C)C[C@H](C)C1 [Example 188, 6-bromo-2-((S)-1-((S)-4,6-dimethyl-1,4-diazepan-1-yl)butyl)-3-ethylpyrido[2,3-d]pyrimidin-4(3H)-one] has a Ki [1] of over 5 µM and a Ki [2] of over 1 µM.
